Results taken from ChEMBL document CHEMBL1201862, “PubChem BioAssay data set” (2004).
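Briefly, cells in 96-well plates were exposed to five compound concentrations for 48 h, and endpoints were estimated by linear interpolation. The concentration for 50% growth inhibition is given as GI50.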 Active and inactive are the calls of the source. Rule as the data show it: active = GI50 up to about 1.1 µM and inactive = higher.

Legend:
Assay in all cases: NCI tumour cell line growth inhibition, 48 h
K562 = test system: K562
IGROV-1 = test system: IGROV-1
NCI-H522 = test system: NCI-H522
HCC 2998 = test system: HCC 2998
HL-60 = test system: HL-60
RXF 393 = test system: RXF 393
786-0 = test system: 786-0
MOLT-4 = test system: MOLT-4
SK-MEL-2 = test system: SK-MEL-2
NCI-H460 = test system: NCI-H460
UO-31 = test system: UO-31
RPMI-8226 = test system: RPMI-8226
EKVX = test system: EKVX
DMS-273 = test system: DMS-273
M14 = test system: M14
HT-29 = test system: HT-29
HOP-92 = test system: HOP-92
T47D = test system: T47D
NCI/ADR-RES = test system: NCI/ADR-RES
DU-145 = test system: DU-145

Row | SMILES | GI50 (K562) | GI50 (IGROV-1) | GI50 (NCI-H522) | GI50 (HCC 2998) | GI50 (HL-60) | GI50 (RXF 393) | GI50 (786-0) | GI50 (MOLT-4) | GI50 (SK-MEL-2) | GI50 (NCI-H460) | GI50 (UO-31) | GI50 (RPMI-8226) | GI50 (EKVX) | GI50 (DMS-273) | GI50 (M14) | GI50 (HT-29) | GI50 (HOP-92) | GI50 (T47D) | GI50 (NCI/ADR-RES) | GI50 (DU-145)
1 | COC(=O)[C@H]1CC(=O)C=C2CCCC21 (stereo partly specified) | > 100 µM (inactive) | > 100 µM (inactive) | > 100 µM (inactive) | > 100 µM (inactive) | > 100 µM (inactive) | > 100 µM (inactive) | > 100 µM (inactive) | > 100 µM (inactive) | > 100 µM (inactive) | > 100 µM (inactive) | > 100 µM (inactive) | > 100 µM (inactive) | > 100 µM (inactive) | > 100 µM (inactive) | > 100 µM (inactive) | > 100 µM (inactive) | > 100 µM (inactive) |  |  | 
2 | O=C(N/N=C1/C(=O)N(c2ccc(Cl)cc2Cl)C(=O)C(=O)C1c1nc2ccccc2o1)c1ccccc1O (stereo unspecified) | 47 µM (inactive) | 39.9 µM (inactive) | 30.8 µM (inactive) |  |  |  | 51.6 µM (inactive) | 34.7 µM (inactive) | 41.3 µM (inactive) | 44.8 µM (inactive) |  | 43.4 µM (inactive) | 45.7 µM (inactive) | > 10 µM (inactive) | 28.3 µM (inactive) | 60.7 µM (inactive) | 30.5 µM (inactive) |  |  | 
3 | C=CCC1(C)CCCCC1(O)C[S+]([O-])c1ccccc1 (stereo unspecified) |  | > 100 µM (inactive) | > 100 µM (inactive) | > 100 µM (inactive) | 54.5 µM (inactive) | > 100 µM (inactive) | > 100 µM (inactive) | > 100 µM (inactive) |  | > 100 µM (inactive) | > 100 µM (inactive) | 33.7 µM (inactive) | > 100 µM (inactive) | > 100 µM (inactive) | > 100 µM (inactive) | > 100 µM (inactive) | > 100 µM (inactive) |  |  | 
4 | O=C1C[C@@H]2C(COC(=O)c3ccccc3)N(OCc3ccccc3)C[C@@H]2O1 (stereo partly specified) | > 100 µM (inactive) | > 100 µM (inactive) | > 100 µM (inactive) | > 100 µM (inactive) | > 100 µM (inactive) | > 100 µM (inactive) | > 100 µM (inactive) | > 100 µM (inactive) | > 100 µM (inactive) | > 100 µM (inactive) | > 100 µM (inactive) |  | > 100 µM (inactive) | > 100 µM (inactive) | > 100 µM (inactive) | > 100 µM (inactive) |  |  |  | 
5 | O=[N+]([O-])c1cccc(Nc2nc(Cl)nc(Cl)n2)c1 | > 100 µM (inactive) |  | > 100 µM (inactive) | > 100 µM (inactive) |  |  | > 100 µM (inactive) | > 100 µM (inactive) | > 100 µM (inactive) | > 100 µM (inactive) | > 100 µM (inactive) | > 100 µM (inactive) | > 100 µM (inactive) | > 100 µM (inactive) | > 100 µM (inactive) | > 100 µM (inactive) |  |  |  | 
6 | N#CCCN(CCC#N)c1ccc(/C=N\c2nc(-c3ccccc3)cs2)cc1 | > 100 µM (inactive) | > 100 µM (inactive) | 49.3 µM (inactive) |  | > 100 µM (inactive) | 39.7 µM (inactive) | > 100 µM (inactive) | > 100 µM (inactive) | > 100 µM (inactive) | > 100 µM (inactive) | > 100 µM (inactive) | > 100 µM (inactive) | > 100 µM (inactive) | > 100 µM (inactive) | > 100 µM (inactive) | > 100 µM (inactive) | 50.8 µM (inactive) |  |  | 
7 | Oc1ccc2c(c1)CC[N+]1=C2CCC2CCCC21 (stereo unspecified) [QUINDONIUM BROMIDE] |  | > 100 µM (inactive) |  | > 100 µM (inactive) |  | > 100 µM (inactive) | > 100 µM (inactive) |  | > 100 µM (inactive) | > 100 µM (inactive) | > 100 µM (inactive) |  | > 100 µM (inactive) | > 100 µM (inactive) | > 100 µM (inactive) | > 100 µM (inactive) | > 100 µM (inactive) |  |  | 
8 | O=S(=O)(O)SC/C=C\CSS(=O)(=O)O | > 100 µM (inactive) | > 100 µM (inactive) | > 100 µM (inactive) | > 100 µM (inactive) | > 100 µM (inactive) | > 100 µM (inactive) | > 100 µM (inactive) | 35.8 µM (inactive) |  | 42.2 µM (inactive) | > 100 µM (inactive) | > 100 µM (inactive) | > 100 µM (inactive) | > 100 µM (inactive) | > 100 µM (inactive) | > 100 µM (inactive) | > 100 µM (inactive) |  |  | 
9 | O=c1/c(=C/c2ccc3c(c2)OCO3)sc2nnc(Cc3ccccc3)n12 | > 100 µM (inactive) | > 100 µM (inactive) | 92.3 µM (inactive) | 81.8 µM (inactive) | > 100 µM (inactive) | > 100 µM (inactive) | > 100 µM (inactive) | > 100 µM (inactive) | > 100 µM (inactive) | > 100 µM (inactive) | > 100 µM (inactive) | 34.5 µM (inactive) | > 100 µM (inactive) | > 100 µM (inactive) | > 100 µM (inactive) |  | > 100 µM (inactive) |  |  | 
10 | CCOc1ccc(N2C(=O)C3c4[nH]c5ccccc5c4C4CCC(C(C)(C)C)CC4C3C2=O)cc1 (stereo unspecified) | > 100 µM (inactive) | > 100 µM (inactive) | 66.7 µM (inactive) | 28.8 µM (inactive) | 44.9 µM (inactive) | 21.8 µM (inactive) | 50.6 µM (inactive) | > 100 µM (inactive) |  |  | 69.2 µM (inactive) | > 100 µM (inactive) | > 100 µM (inactive) | > 100 µM (inactive) | > 100 µM (inactive) | 32.1 µM (inactive) | > 100 µM (inactive) |  |  | 
11 | O=c1ccc2ccc(O)c3c4c(O)ccc5ccc(=O)c(c1c23)c54 | 2.07 µM (inactive) | 1.82 µM (inactive) | 1.45 µM (inactive) |  | 1.09 µM (active) | 1.17 µM (inactive) | 2.31 µM (inactive) | 2.11 µM (inactive) | 1.45 µM (inactive) | 3.56 µM (inactive) | 1.65 µM (inactive) | 2.9 µM (inactive) | 3.38 µM (inactive) | 1.95 µM (inactive) | 1.6 µM (inactive) | 4.27 µM (inactive) |  |  |  | 
12 | C=C1C(=O)OC2(C)C3CCC(C3)C12 (stereo unspecified) | 33.3 µM (inactive) | > 100 µM (inactive) | 21.7 µM (inactive) | 66.1 µM (inactive) | 19.9 µM (inactive) |  | 47.9 µM (inactive) | 34 µM (inactive) | 39.4 µM (inactive) | 33 µM (inactive) | > 100 µM (inactive) | 34.4 µM (inactive) | 81.8 µM (inactive) | 68.4 µM (inactive) | 27.7 µM (inactive) | 34.9 µM (inactive) | 29 µM (inactive) |  |  | 
13 | CCCCCCCCCCCCC(SCCNC(=O)CCNC(=O)C(O)C(C)(C)COP(=O)(O)OP(=O)(O)OCC1OC(n2cnc3c(N)ncnc32)C(O)C1OP(=O)(O)O)C(=O)NCC(N)=O (stereo unspecified) |  | > 100 µM (inactive) | 69.2 µM (inactive) | > 100 µM (inactive) | 72.9 µM (inactive) | 36 µM (inactive) | > 100 µM (inactive) |  | > 100 µM (inactive) | 91.6 µM (inactive) | 64.9 µM (inactive) |  | > 100 µM (inactive) | 41.3 µM (inactive) | > 100 µM (inactive) | > 100 µM (inactive) | 38.3 µM (inactive) |  |  | 
14 | CCOc1ccc(NC(=O)CC2SC(Nc3ccc(Cl)cc3)=NC2=O)cc1 (stereo unspecified) | 23.9 µM (inactive) | > 100 µM (inactive) | > 10 µM (inactive) | > 100 µM (inactive) | 24.2 µM (inactive) | 40.8 µM (inactive) | > 100 µM (inactive) | 29.4 µM (inactive) | > 100 µM (inactive) | > 100 µM (inactive) | > 100 µM (inactive) | 58.6 µM (inactive) | > 100 µM (inactive) | > 100 µM (inactive) | > 100 µM (inactive) | > 100 µM (inactive) |  |  |  | 
15 | Oc1cc(F)cc2cccnc12 | 0.105 µM (active) | 0.889 µM (active) | 0.183 µM (active) | 26.1 µM (inactive) | 0.0887 µM (active) | 3.75 µM (inactive) | 7.29 µM (inactive) | 0.206 µM (active) | 16.4 µM (inactive) | 1.24 µM (inactive) | 0.652 µM (active) | 0.259 µM (active) | 0.418 µM (active) |  | 1.02 µM (active) | 4.47 µM (inactive) | 0.0356 µM (active) | 1.3 µM (inactive) | 0.281 µM (active) | 5.58 µM (inactive)
16 | O=C(/N=S(/NC(=O)c1ccccc1)C(Cl)(Cl)Cl)c1ccccc1 (stereo unspecified) | 8.91 µM (inactive) | 8.47 µM (inactive) | 30.3 µM (inactive) | 34.8 µM (inactive) | 4.89 µM (inactive) | 12.1 µM (inactive) | 28.1 µM (inactive) | 6.97 µM (inactive) | 31.9 µM (inactive) | 30.5 µM (inactive) | 16.3 µM (inactive) | 41.2 µM (inactive) | 19.7 µM (inactive) |  | 10.5 µM (inactive) | 18.9 µM (inactive) | 32.3 µM (inactive) | 26.9 µM (inactive) | 15.5 µM (inactive) | 53.5 µM (inactive)
17 | NC(=O)[C@H](Cc1ccc(O)cc1)NC1=C(Cl)C(=O)c2c(O)ccc(O)c2C1=O | 1.45 µM (inactive) | 2.07 µM (inactive) | 1.63 µM (inactive) | 2.37 µM (inactive) | 1.04 µM (active) | 3.52 µM (inactive) | 2.02 µM (inactive) | 0.55 µM (active) | 9.02 µM (inactive) | 7.76 µM (inactive) | 4 µM (inactive) | 2.25 µM (inactive) | > 10 µM (inactive) |  | 3.14 µM (inactive) | 2.38 µM (inactive) | 2.13 µM (inactive) | 2.15 µM (inactive) | 2.8 µM (inactive) | 6.53 µM (inactive)
